Read-outs that look alike come from different tables or passages of the source.
What was measured:
[1] = MTT assay against normal MRC5 cells; type: cell-based; conditions: human, 72 h treatment, mean ± SD (n = 3)
Protocol: Selectivity of the antiproliferative agents toward cancer cells plays a critical role in the development of these agents as potential anticancer drugs. […] In the current study, all of the new compounds 16a–h were evaluated for the antiproliferative activities against the normal MRC5 cells. […] The aim of this study was to assess the toxicity of the new compounds against normal MRC5 cells. In addition, the IC50 values were also used to calculate the selectivity index (SI) which measures the selective cytotoxicity of the new compounds.
(§1) In the current study, the three cancer cell lines (MCF7, A2780, and HT29) used were obtained from the ATCC. The cell lines were cultured following our previous report. On the other hand, the normal MRC5 cells used in the current study were maintained in Eagle’s minimum essential medium following the previous report.
(§2) The antiproliferative activity was measured using the MTT assay according to the previous report. Briefly, the cancer/normal cell lines were cultured in 96-well (3 × 10^3/well) separately. The cells were treated by tested compounds 16a–h in final concentrations of 0, 0.1, 1, 10, 25, and 50 μM and incubated at 37 °C for 72 h. The MTT was added and the antiproliferative activities (IC50 values) of the new compounds were calculated.

MCF7 cells [2] = experiment: MTT antiproliferative activity assay, MCF7; type: cell-based; conditions: for IC50: Homo sapiens, MCF7, MTT, 72 h, mean ± S.D. (n = 3); for Selectivity Index MCF7: IC50 against MRC5 divided by IC50 against MCF7
Protocol: (§3) The antiproliferative activities of the eight Schiff bases 16a–h against three cancer cell lines (MCF-7, A2780, and HT29) were evaluated using the MTT assay. The selection of these cell lines was done to compare the antiproliferative activities of the new compounds with those of compound 10 [20]. The assay was performed following the previous report.
as §1, §2

HT29 cells [3] = experiment: MTT antiproliferative activity assay, HT29; type: cell-based; conditions: for IC50: Homo sapiens, HT-29, MTT, 72 h, mean ± S.D. (n = 3); for Selectivity Index HT29: IC50 against MRC5 divided by IC50 against HT29
Protocol: as §3, §1, §2

A2780 cells [4] = experiment: MTT antiproliferative activity assay, A2780; type: cell-based; conditions: for IC50: Homo sapiens, A2780, MTT, 72 h, mean ± S.D. (n = 3); for Selectivity Index A2780: IC50 against MRC5 divided by IC50 against A2780
Protocol: as §3, §1, §2

5-LOX = system: 5-LOX; set-up: method as in PMID 26994693; conditions: Figure 2; cited from earlier work
COX-2 = conditions: cited from earlier work
COX-1 = system: COX-1; set-up: method as in PMID 26994693; conditions: Figure 2; cited from earlier work
MCF7 = conditions: Figure 2; cited from earlier work
[5] = system: MCF7, A2780 and HT29 cancer cell lines; experiment: MTT antiproliferative activity assay, three cancer cell lines together; type: cell-based; conditions: for IC50: MCF7, A2780 and HT29, MTT, 72 h, read-out: IC50 range against the three cancer cell lines; for Selectivity index range toward the three cancer cell lines: MCF7, A2780, HT29 compared to MRC5 cells
Protocol: as §3, §1, §2

A549 cells = conditions: cited from earlier work
MCF7 cells [6] = experiment: Cell cycle analysis by flow cytometry; type: cell-based; conditions: MCF7 cells, 0.01, 0.05, 0.10 μM, 72 h
Protocol: Cell cycle analysis of MCF7 cells was also performed to investigate the mechanism which mediates the antiproliferative activity of the new compounds. […] The assay was performed according to the previous report. The results are represented in Figure 11.
The effect of compound 16g on the cell cycle distribution of MCF7 was performed following the previous report. Briefly, the cancer cells were cultured for 72 h with 0.00, 0.01, 0.05, and 0.10 μM final concentration of compound 16g. Next, the cells were washed with PBS x1 and trypsinized. The collected cells were spinned and fixed with 70% ethanol. Ribonuclease A was added (15 min) after suspending the cells in cold PBS x1. Following the addition of propidium iodide, analysis of the ice-cold cells was done by flow cytometry (BC, FC500, Brea, CA, USA).

A2780 cells [7] = system: A2780 cells; set-up: method as in PMID 31259695; conditions: quoted from previous publication; cited from earlier work
[8] = system: MCF7, A2780 and HT29 cancer cell lines; set-up: method as in PMID 31259695; conditions: read-out: IC50 range against the three cancer cell lines; cited from earlier work
MCF7 cells [9] = system: MCF7 cells; set-up: method as in PMID 31259695; conditions: quoted from previous publication; cited from earlier work
HT29 cells [10] = system: HT29 cells; set-up: method as in PMID 31259695; conditions: quoted from previous publication; cited from earlier work
[11] = Figure 2, read-out: IC50 (COX-2)

Row | IC50 at 72 h [1] [µM] | IC50 (MCF7 cells [2]) [µM] | IC50 (HT29 cells [3]) [µM] | IC50 (A2780 cells [4]) [µM] | melting point [°C] | SMILES | Selectivity Index MCF7 (MCF7 cells [2]) | Selectivity Index HT29 (HT29 cells [3]) | Selectivity Index A2780 (A2780 cells [4]) | also measured
1 | 2.42 ± 0.56 | 7.05 ± 0.28 | 0.17 ± 0.01 | 21.2 ± 2.43 | 241 to 243 | Cc1ccc(C=Nc2c(C#N)c3n(c2C(=O)Nc2ccc(F)cc2)CCC3)cc1 [Compound 16d, 7-Cyano-N-(4-fluorophenyl)-6-((4-methylbenzylidene)amino)-2,3-dihydro-1H-pyrrolizine-5-carboxamide] | 0.34 | 14.24 | 0.11 | 
2 | 2.77 ± 0.09 | 0.15 ± 0.02 | 0.34 ± 0.03 | 1.4 ± 0.21 | 239 to 241 | COc1ccc(NC(=O)c2c(N=Cc3ccc(F)cc3)c(C#N)c3n2CCC3)cc1 [Compound 16e, 7-Cyano-6-((4-fluorobenzylidene)amino)-N-(4-methoxyphenyl)-2,3-dihydro-1H-pyrrolizine-5-carboxamide] | 18.47 | 8.15 | 1.98 | 
3 |  |  |  |  |  | Cc1ccc(-c2c(-c3ccc(S(C)(=O)=O)cc3)cn3c2CCC3)cc1 [Compound 9] |  |  |  | IC50 (5-LOX): 10 µM; IC50 (COX-2; [11]): 0.005 µM; IC50 (COX-1): 0.7 µM
4 |  |  |  |  |  | COC1c2c(-c3ccccc3)c(-c3ccc(Cl)cc3)c(C)n2CC1(C)C (stereo not shown) [Compound 8] |  |  |  | IC50 (5-LOX): 0.06 µM; IC50 (COX-2; [11]): 7.5 µM; IC50 (COX-1): 0.5 µM
5 | 1.6 ± 0.12 | 26.9 ± 1.67 | 0.71 ± 0.29 | 42.6 ± 3.47 | 262 to 264 | N#Cc1c(N=Cc2ccc(Cl)cc2)c(C(=O)Nc2ccc(F)cc2)n2c1CCC2 [Compound 16h, 6-((4-Chlorobenzylidene)amino)-7-cyano-N-(4-fluorophenyl)-2,3-dihydro-1H-pyrrolizine-5-carboxamide] | 0.06 | 2.25 | 0.04 | 
6 |  |  |  |  |  | CC1(C)Cc2c(-c3ccccc3)c(-c3ccc(Cl)cc3)c(CC(=O)O)n2C1 [Licofelone] |  |  |  | IC50 (COX-2; [11]): 4.7 µM; IC50 (MCF7): 5.5 µM
7 | 14.9 ± 2.45 | 5.98 ± 1.31 | 13.2 ± 1.82 | 9.86 ± 1.72 |  | CS(=O)(=O)CCNCc1ccc(-c2ccc3ncnc(Nc4ccc(OCc5cccc(F)c5)c(Cl)c4)c3c2)o1 [Lapatinib, lapatinib, reference compound] | 2.49 | 1.13 | 1.51 | IC50 [5]: 5.98 to 13.2 µM
8 |  |  |  |  |  | O=C(c1ccccc1)c1ccc2n1CCC2C(=O)O (stereo not shown) [Ketorolac, ketorolac] |  |  |  | IC50 (COX-2; [11]): 0.14 µM; IC50 (A549 cells): ~13 µM
9 | 1.27 ± 0.48 | 40.5 ± 10.6 | 0.19 ± 0.02 | 13.9 ± 1.92 | 226 to 228 | COc1ccc(NC(=O)c2c(N=Cc3ccc(N(C)C)cc3)c(C#N)c3n2CCC3)cc1 [Compound 16a, 7-Cyano-6-((4-(dimethylamino)benzylidene)amino)-N-(4-methoxyphenyl)-2,3-dihydro-1H-pyrrolizine-5-carboxamide] | 0.03 | 6.68 | 0.09 | Selectivity index range toward the three cancer cell lines [5]: 0.03–6.68; IC50 [5]: 0.19 to 40.5 µM
10 | 5.78 ± 0.63 | 0.01 | 0.37 ± 0.18 | 0.56 ± 0.01 | 241 to 243 | COc1ccc(NC(=O)c2c(N=Cc3ccc(Cl)cc3)c(C#N)c3n2CCC3)cc1 [Compound 16g, 6-((4-Chlorobenzylidene)amino)-7-cyano-N-(4-methoxyphenyl)-2,3-dihydro-1H-pyrrolizine-5-carboxamide] |  | 15.62 | 10.32 | Selectivity index range toward the three cancer cell lines [5]: 10.32–578.00; Cell cycle perturbation (MCF7 cells [6]): cell cycle arrest at the G2/M phase
11 |  |  |  |  |  | CS(=O)(=O)c1ccc(C2=C(c3ccccc3)C(=O)OC2)cc1 [Rofecoxib, rofecoxib] |  |  |  | IC50 (COX-2; read-out: IC50 against COX-2): 0.53 µM
12 | 1.34 ± 0.45 | 40.5 ± 7.7 | 0.21 ± 0.12 | 0.49 ± 0.12 | 253 to 255 | N#Cc1c(N=Cc2ccc(F)cc2)c(C(=O)Nc2ccc(F)cc2)n2c1CCC2 [Compound 16f, 7-Cyano-6-((4-fluorobenzylidene)amino)-N-(4-fluorophenyl)-2,3-dihydro-1H-pyrrolizine-5-carboxamide] | 0.03 | 6.38 | 2.73 | 
13 |  |  |  |  |  | Cc1ccc(NC(=O)c2c(/N=C/c3ccc(Cl)cc3)c(C#N)c3n2CCC3)cc1 [Compound 10] |  |  |  | IC50 (A2780 cells [7]): 0.44 ± 0.01 µM; IC50 [8]: 0.33 to 0.44 µM; IC50 (MCF7 cells [9]): 0.33 ± 0.12 µM; IC50 (HT29 cells [10]): 0.41 ± 0.02 µM
14 | 1.27 ± 0.32 | 0.08 ± 0.01 | 10.2 ± 0.12 | 0.9 ± 0.08 | 244 to 246 | CN(C)c1ccc(C=Nc2c(C#N)c3n(c2C(=O)Nc2ccc(F)cc2)CCC3)cc1 [Compound 16b, 7-Cyano-6-((4-(dimethylamino)benzylidene)amino)-N-(4-fluorophenyl)-2,3-dihydro-1H-pyrrolizine-5-carboxamide] | 15.88 | 0.12 | 1.41 | 
15 | 24.1 ± 1.31 | 0.03 ± 0.01 | 2.27 ± 0.61 | 0.14 ± 0.02 | 231 to 233 | COc1ccc(NC(=O)c2c(N=Cc3ccc(C)cc3)c(C#N)c3n2CCC3)cc1 [Compound 16c, 7-Cyano-N-(4-methoxyphenyl)-6-((4-methylbenzylidene)amino)-2,3-dihydro-1H-pyrrolizine-5-carboxamide] |  | 10.60 |  | 
